Where no end group is shown, it is not given here.
Key:
Assay type in all cases: cell-based
[1] = test system: thymulin; assay: Thymulin staining of GH-treated hair follicles
[2] = test system: human anagen hair follicles; assay: Ki67/TUNEL staining, percentage of proliferating cells, assay #3; details: for Mean percentage of Ki67-positive cells: after 9 days of culture, Anagen only; for Percentage of proliferating cells compared to the control (in words): nine days, p<0.05
Method: (§1) Assay #3 Culture HF 446: Eight hair follicle cultures (3 follicles/well) were treated with various concentration of test substance as described for 2 days, followed by snap freezing and sectioning of two wells. Six wells were treated up to 9 days, then snap frozen and sectioned. The distribution of test substances and concentrations were as indicted in FIG. 3. The parameter measured after two days was proliferation/apoptosis, and the parameters measured after 9 days were elongation, proportion of cells in proliferation/apoptosis, and hair cycle stage
After nine days, Ki67/TUNEL staining was performed and photos taken.
Proliferating and resting cells as well as cells undergoing apoptosis were counted separately proximal Auber's line. Results are expressed as percentages. For Ki-67/TUNEL staining, fixed sections were incubated for 60 minutes in a solution comprising 30% TdT-enzyme (Chemicon International, Inc., Temecula, Calif., USA; CatNo S1707). 2 mL stop buffer (Chemicon International, Inc.; CatNo S7110), diluted in 68 mL distilled water, was added for 10 minutes to stop the reaction. This was followed by a pre-incubation for 20 minutes with 10% goat serum (Dako Cytomation, CatNo 50114121) and incubation with mouse-anti human Ki-67 antigen (Chemicon International, Inc., CatNo S7110) 1:20 in PBS with 2% goat serum. The fixed section was then washed in PBS, treated with anti-digoxigenin antibody (Chemicon International, Inc., CatNo S7110) (59DI Antibody solution and 5601 Stop solution, 30 minutes) and goat anti-mouse-IgG-rhodamine red (Jackson Immuno Research, Suffolk, UK; CatNo 115-295-062), 1:200 in PBS with 2% goat serum. After washes with PBS, counterstaining with DAPI™ ([…]) (Roche, Basel, Switzerland; CatNo 236276) and further washes with PBS and mounting using Fluoromount (Southern Biotech, Birmingham, Ala., USA; CatNo 0100-01).
After nine days, Ki67/TUNEL staining was performed and photos were taken. In anagen hair follicles, proliferating cells and cells undergoing apoptosis were counted separately proximal Auber's line. Results are expressed as percentages. […] The results are summarized in Table 6 and FIG. 9 showing the mean percentage of Ki6 7 positive cells with SEM

[3] = test system: human anagen VI hair follicles; assay: Hair shaft elongation of organ-cultured hair follicles, assay #1 (culture HF 429)
Method: (§2) Human anagen VI hair follicles were isolated from scalp skin obtained from three different individuals undergoing routine face-lift surgery. All experiments were performed according to Helsinki guidelines.
(§3) Hair follicles were isolated as described (Philpott MP et al, Human hair growth in vitro; J Cell Science 1990, 97(Pt 3):463-71). Isolated HFs were maintained in supplemented, serum-free Williams E medium (Biochrom, Cambridge, UK) supplemented with 2 mMol/L L-glutamine (Invitrogen, Paisley, UK), 10 ng/mL hydrocortisone (Sigma-Aldrich, Taufkirchen, Germany), 10 μg/mL insulin (Sigma-Aldrich), and 1% antibiotic/antimycotic mixture (Gibco, Karlsruhe, Germany). Hair follicles were placed in a 24-well plate with 500 μL medium (day 0) and incubated in a CO2-incubator (5% CO2, 37° C.) over night without any treatment. The next day (day 1) medium was exchanged and test substance was added to each well (5 μL of stock solution was added to 495 μL culture medium). The medium or medium with test substance was changed every 48 hours.
(§4) Assay #1 Culture HF429: Hair follicles were grown in the wells of a microtiter plate (3 follicles per well) and treated for 9 days with culture medium and test substance as indicated in FIG. 1. Thereafter, elongation, melanogenesis and hair cycle stage were determined.
(§5) Hair shaft length measurements were performed every second day on individual hair follicles using a binocular microscope with an eyepiece measuring reticule. The length of the follicle was defined as the distance between the base of the bulb and the cut end of the hair fibre (Philpott MP et al, Human hair growth in vitro; J Cell Science 1990, 97(Pt 3):463-71).
(§6) All data were analysed by two-tailed unpaired t-test (SPSS analysis software SPSS Inc., Chicago, USA). For determination of elongation, two outliers at top and bottom end of value range were eliminated; with the measurement of melanogenesis one outlier at both, top and bottom range, was eliminated. Results are given as mean value and standard error of measurement (SEM).

[4] = test system: human hair follicles; assay: Hair cycle staging of cultured hair follicles (assays #1, #2, #3); details: after 9 days of treatment, both tested individuals, all concentrations
Method: (§7) Photodocuments from the Fontana Masson staining were used for hair follicle staging according to previously well-defined morphological criteria (Stenn K S et al, Controls of Hair Follicle Cycling; Physiol Rev 2001, 81:449-494, Müller-Röver S et al, A Comprehensive Guide for the Accurate Classification of Murine Hair Follicles in Distinct Hair Cycle Stages; J Invest Dermatol 2001, 117:3-15). The percentage of hair follicles in anagen, early, mid and late catagen was determined.
as §7, with “determined in the different assays.” for “determined.”

[5] = test system: human anagen VI hair follicles; assay: Hair shaft elongation of organ-cultured hair follicles, assay #3 (culture HF 446); details: for Rate of hair growth compared with control (in words): p<0.05
Method: as §2, §3, §1, §5, §6

[6] = test system: human anagen VI hair follicles; assay: Melanogenesis, Fontana Masson staining measured by Image J, assay #1; details: for Mean relative darkening of the groups (measured by image J), Mean: 9 days, dark=small index number, light=high index number
Method: as §4
Fontana Masson staining was performed at the end of the culture period and photos taken of snap frozen sections. The photos were analysed (Image J, public domain, developed at the National Institutes of Health, USA) by measuring the density of two squares, consisting of 150×150 dots, placed over the darkest areas on both sides of the dermal papilla. For Fontana-Masson staining, fixed sections were treated in darkness for 40 minutes with a solution containing 10% silver nitrate (Merck & Co., Inc., Whitehouse Station, N.J., USA; CatNo 1.01512.0100), following by a development in solution containing 5% sodium thiosulphate (Merck & Co., Inc.; CatNo 1.06512.2500) for 1 minute and multiple washings in distilled water for 3 minutes. Counterstaining with 0.5% Neutralrot (Chroma Muenster, Germany, CatNo 2E038). Then dehydration in xylol and covering with Eukitt (O. Kindler GmbH, Freiburg, Germany; CatNo E115).
as §6
Micro-dissected anagen VI hair follicles were treated as above described. At the end of the culture period Fontana Masson staining was performed and photos were taken of the snap frozen sections. The pictures were analysed by measuring the darkness (brightness) of two squares, consisting of 150×150 dots, placed over the darkest areas on both sides of the dermal papilla (dark=small index number, light=high index number). The shading of the different groups was compared to each other and the results were analysed using Student's t-test. The results are shown below in Table 5 and FIG. 7.

## GH: GH, pituitary hormone that stimulates the secretion of thymulin
[1]
  Staining for thymulin compared with the control group (in words): stained more intensively for thymulin

## Thymosin alpha-1 (SDAAVDTSSEITTKDLKEKKEVVEEAEN; ends and bridges not checked; UniProt P06454 2-29, looked up) [TA1, 28aa thymic peptide which modulates lymphocyte differentiation]
[2]; 100 ng/mL
  Mean percentage of Ki67-positive cells: 25.15 percentage
  Percentage of proliferating cells compared to the control (in words): less percentage of cells are proliferating
[2]; 1000 ng/mL
  Mean percentage of Ki67-positive cells: 28.05 percentage
  Percentage of proliferating cells compared to the control (in words): less percentage of cells are proliferating
[3]; 100 ng/mL, Day 0
  Mean elongation in percent compared to day 0: 0.00%
[3]; 100 ng/mL, Day 1
  Mean elongation in percent compared to day 0: 16.71%
[3]; 100 ng/mL, Day 3
  Mean elongation in percent compared to day 0: 34.54%
[3]; 100 ng/mL, Day 5
  Mean elongation in percent compared to day 0: 51.14%
[3]; 100 ng/mL, Day 7
  Mean elongation in percent compared to day 0: 70.11%
[3]; 100 ng/mL, Day 9
  Mean elongation in percent compared to day 0: 82.55%
[3]; 1000 ng/mL, Day 0
  Mean elongation in percent compared to day 0: 0.00%
[3]; 1000 ng/mL, Day 1
  Mean elongation in percent compared to day 0: 15.41%
[3]; 1000 ng/mL, Day 3
  Mean elongation in percent compared to day 0: 34.74%
[3]; 1000 ng/mL, Day 5
  Mean elongation in percent compared to day 0: 50.66%
[3]; 1000 ng/mL, Day 7
  Mean elongation in percent compared to day 0: 66.20%
[3]; 1000 ng/mL, Day 9
  Mean elongation in percent compared to day 0: 75.26%
[4]
  Hair follicles in anagen compared with control (in words): more hair follicles in anagen
[5]; 100 ng/mL, Day 0
  Mean elongation in % compared to day 0: 0%
[5]; 100 ng/mL, Day 1
  Mean elongation in % compared to day 0: 6.25%
[5]; 100 ng/mL, Day 3
  Mean elongation in % compared to day 0: 45.55%
[5]; 100 ng/mL, Day 5
  Mean elongation in % compared to day 0: 49.52%
[5]; 100 ng/mL, Day 7
  Mean elongation in % compared to day 0: 61.94%
[5]; 100 ng/mL, Day 9
  Mean elongation in % compared to day 0: 69.90%
[5]; 100 ng/mL
  Rate of hair growth compared with control (in words): significantly lowered rate of hair growth
[5]; 1000 ng/mL, Day 0
  Mean elongation in % compared to day 0: 0%
[5]; 1000 ng/mL, Day 1
  Mean elongation in % compared to day 0: 4.00%
[5]; 1000 ng/mL, Day 3
  Mean elongation in % compared to day 0: 37.95%
[5]; 1000 ng/mL, Day 5
  Mean elongation in % compared to day 0: 51.77%
[5]; 1000 ng/mL, Day 7
  Mean elongation in % compared to day 0: 68.36%
[5]; 1000 ng/mL, Day 9
  Mean elongation in % compared to day 0: 73.33%
[5]; 1000 ng/mL
  Rate of hair growth compared with control (in words): significantly lowered rate of hair growth
[6]; 100 ng/mL
  Mean relative darkening of the groups (measured by image J), Mean: 81.01
[6]; 1000 ng/mL
  Mean relative darkening of the groups (measured by image J), Mean: 71.61
[6]; quantitative Masson-Fontana histochemistry
  Influence on HF melanogenesis (in words): did not influence HF melanogenesis

— patent publication US20110281802A1, “COMPOSITION FOR TREATMENT AND PREVENTION OF HAIR LOSS AND PREMATURE GRAYING OF HAIR” (Immudiagnostik AG, priority 2007, published 2011)
